The values below come from patent US10501438B2, “Aryl-substituted dihydroquinolinones, their preparation and their use as pharmaceuticals” (NEOMED Institute, priority 2015, dated 2019).

In the first assay the test system is human C-Myc transcription in MV-4-11 cells. Nature of the assay: Transcription of human C-Myc in human leukemic MV-4-11 cells (QuantiGene 2.0). Type of assay: cell-based. To be noted: Homo sapiens, MV4-11, 4 h, inhibition of C-Myc mRNA, 4 hours treatment. How it is done: b) Transcription of Human C-Myc in Human Leukemic MV-4-11 Cells:
The effect of compounds on transcription of human C-Myc gene is monitored in human B-myelomonocytic leukemia cell line MV-4-11 (from American Type Culture Collection (ATCC), Manassas, Va., USA) using QuantiGene 2.0 assay kit (Affymetrix, Santa Clara, Calif., USA).
Typically, 8,000 MV-4-11 cells are plated in sterile 96-well plates (Costar #3598 from Fisher Scientific Canada, Ottawa, Ontario, Canada) in Iscove's medium supplemented with 10% fetal bovine serum, glutamine (2 mM), and penicillin (100 I.U.) and streptomycin (100 μg/mL) (all from Wisent Inc., St. Bruno, Quebec, Canada). Compounds are dissolved in DMSO at 30 mM. A series of 1:3 dilutions are first made in DMSO, and further 1:100 dilutions are made in serum-containing cell culture media. The final concentration of DMSO is 0.1% in cell culture media. After cells are treated with various concentrations of test compound for 4 hours, cells are lysed using Quantigene 2.0 sample processing kit (#QS0100). C-Myc mRNA is detected using a QuantiGene 2.0 assay kit (#QS0009) with gene-specific probe to human C-Myc (#SA-50182) following the manufacturer's recommendations. Luminescene signals are read on Flexstation II microplate reader (Molecular Devices, Sunnyvale, Calif., USA).
Broadly, the IC50 is the concentration that gives 50% inhibition. Low values mean inhibition by little substance, high ones a need for much substance. Compound `Cc1cc(-c2cc3c(cc2Cc2cccnc2)NC(=O)CC3)cn(C)c1=O` [Compound 62, 6-(1,5-dimethyl-6-oxo-1,6-dihydropyridin-3-yl)-7-(pyridin-3-ylmethyl)-3,4-dihydroquinolin-2(1H)-one] displayed an IC50 of 0.86 µM.

Turning to `Cc1cc(-c2ccc3c(c2COC2CCC2)NC(=O)CC3)cn(C)c1=O` [Compound 39, 8-(cyclobutoxymethyl)-7-(1,5-dimethyl-6-oxo-1,6-dihydropyridin-3-yl)-3,4-dihydroquinolin-2(1H)-one], the midpoint of inhibition, the IC50, lay at 9.85 µM.

`Cc1cc(-c2ccc3c(c2C(C)c2ccccc2)CCC(=O)N3)cn(C)c1=O` (centres unmarked) [Compound 95, 6-(1,5-dimethyl-6-oxo-1,6-dihydropyridin-3-yl)-5-(1-phenylethyl)-3,4-dihydroquinolin-2(1H)-one]: inhibition was half-maximal at 0.03 µM (IC50).

Regarding `Cc1cc(-c2cc3c(c(CN(C)C4CCCC4)c2)NC(=O)CC3)cn(C)c1=O` [Compound 97, 8-((cyclopentyl(methyl)amino)methyl)-6-(1,5-dimethyl-6-oxo-1,6-dihydropyridin-3-yl)-3,4-dihydroquinolin-2(1H)-one], the IC50 was found to be 0.79 µM.

Compound `CC(=O)N(Cc1cc(-c2cc(C)c(=O)n(C)c2)cc2c1NC(=O)CC2)C1CCCC1` [Compound 98, N-cyclopentyl-N-((6-(1,5-dimethyl-6-oxo-1,6-dihydropyridin-3-yl)-2-oxo-1,2,3,4-tetrahydroquinolin-8-yl)methyl)acetamide] had a half-inhibitory concentration (IC50) of 0.09 µM.

`Cc1cc(-c2ccc3c(c2COC2CCC2)CCC(=O)N3)cn(C)c1=O` [Compound 67, 5-(cyclobutoxymethyl)-6-(1,5-dimethyl-6-oxo-1,6-dihydropyridin-3-yl)-3,4-dihydroquinolin-2(1H)-one]: the IC50 is 2.03 µM.

In turn, `Cc1cc(-c2cc3c(c(OCC4CCCOC4)c2)NC(=O)CC3)cn(C)c1=O` (centres unmarked) [Compound 54a, 6-(1,5-dimethyl-6-oxo-1,6-dihydropyridin-3-yl)-8-((tetrahydro-2H-pyran-3-yl)methoxy)-3,4-dihydroquinolin-2(1H)-one] yielded a concentration for half-maximal inhibition (IC50) of 0.55 µM.

`Cc1cc(-c2cc3c(cc2Cc2ccccn2)CCC(=O)N3)cn(C)c1=O` [Compound 32, 7-(1,5-dimethyl-6-oxo-1,6-dihydropyridin-3-yl)-6-(pyridin-2-ylmethyl)-3,4-dihydroquinolin-2(1H)-one] yielded a half-maximal inhibitory concentration (IC50) of 2.23 µM.

In turn, `Cc1cc(-c2cc3c(c(OCc4cnccn4)c2)NC(=O)CC3)cn(C)c1=O` [Compound 52, 6-(1,5-dimethyl-6-oxo-1,6-dihydropyridin-3-yl)-8-(pyrazin-2-ylmethoxy)-3,4-dihydroquinolin-2(1H)-one] registered an IC50 of 0.55 µM.

As for `Cc1cc(-c2cc3c(c(COC4CCCCC4)c2)NC(=O)CC3)cn(C)c1=O` [Compound 27, 8-(cyclohexoxymethyl)-6-(1,5-dimethyl-6-oxo-3-pyridyl)-3,4-dihydro-1H-quinolin-2-one], the IC50 stood at 0.15 µM.

Take `Cc1cc(-c2ccc3c(c2Cc2ccc(F)cc2)CCC(=O)N3)cn(C)c1=O` [Compound 91, 6-(1,5-dimethyl-6-oxo-1,6-dihydropyridin-3-yl)-5-(4-fluorobenzyl)-3,4-dihydroquinolin-2(1H)-one]: 0.1 µM corresponded to half-maximal inhibition (IC50).

Turning to `Cc1cc(-c2cc3c(c(OCC4CCC4)c2)NC(=O)CC3)cn(C)c1=O` [Compound 20, 8-(cyclobutylmethoxy)-6-(1,5-dimethyl-6-oxo-1,6-dihydropyridin-3-yl)-3,4-dihydroquinolin-2(1H)-one], the half-inhibitory concentration (IC50) turned out to be 0.79 µM.

For the compound `Cc1cc(-c2ccc3c(c2Cc2ccccc2)NC(=O)CC3)cn(C)c1=O` [Compound 30, 8-benzyl-7-(1,5-dimethyl-6-oxo-1,6-dihydropyridin-3-yl)-3,4-dihydroquinolin-2(1H)-one], the IC50 came out at 0.25 µM.

The compound `Cc1cc(-c2cc3c(cc2COC2CCCC2)CCC(=O)N3)cn(C)c1=O` [Compound 34, 6-((cyclopentyloxy)methyl)-7-(1,5-dimethyl-6-oxo-1,6-dihydropyridin-3-yl)-3,4-dihydroquinolin-2(1H)-one] had a concentration for half-maximal inhibition (IC50) of 2.82 µM.

For the compound `Cc1cc(-c2ccc3c(c2/C=C/c2ccccc2)CCC(=O)N3)cn(C)c1=O` [Compound 94, (E)-6-(1,5-dimethyl-6-oxo-1,6-dihydropyridin-3-yl)-5-styryl-3,4-dihydroquinolin-2(1H)-one], half-maximal inhibition (IC50) required 0.73 µM.

Turning to `Cc1cc(-c2cc3c(c(OCc4cccnc4)c2)NC(=O)CC3)cn(C)c1=O` [Compound 25, 6-(1,5-dimethyl-6-oxo-1,6-dihydropyridin-3-yl)-8-(pyridin-3-ylmethoxy)-3,4-dihydroquinolin-2(1H)-one], half-maximal inhibition (IC50) was put at 0.15 µM.

`Cc1cc(-c2cc3c(c(OCc4ncco4)c2)NC(=O)CC3)cn(C)c1=O` [Compound 81, 6-(1,5-dimethyl-6-oxo-1,6-dihydropyridin-3-yl)-8-(oxazol-2-ylmethoxy)-3,4-dihydroquinolin-2(1H)-one] registered a 50% inhibitory concentration (IC50) of 0.53 µM.

`Cc1cc(-c2cc3c(c(OCc4ccncc4)c2)NC(=O)CC3)cn(C)c1=O` [Compound 73, 6-(1,5-dimethyl-6-oxo-1,6-dihydropyridin-3-yl)-8-(pyridin-4-ylmethoxy)-3,4-dihydroquinolin-2(1H)-one] returned a concentration for half-maximal inhibition (IC50) of 0.5 µM.

As to `Cc1cc(-c2ccc3c(c2COC2CCCC2)NC(=O)CC3)cn(C)c1=O` [Compound 38, 8-((cyclopentyloxy)methyl)-7-(1,5-dimethyl-6-oxo-1,6-dihydropyridin-3-yl)-3,4-dihydroquinolin-2(1H)-one], the concentration for half-maximal inhibition (IC50) came to 0.54 µM.

In the case of `Cc1cc(-c2cc(Cc3ccccc3)c3c(c2)NC(=O)CC3)cn(C)c1=O` [Compound 99, 5-benzyl-7-(1,5-dimethyl-6-oxo-1,6-dihydropyridin-3-yl)-3,4-dihydroquinolin-2(1H)-one], the IC50 amounted to 0.84 µM.

In turn, `Cc1cc(-c2cc3c(c(OCc4ccc(F)cn4)c2)NC(=O)CC3)cn(C)c1=O` [Compound 77, 6-(1,5-dimethyl-6-oxo-1,6-dihydropyridin-3-yl)-8-((5-fluoropyridin-2-yl)methoxy)-3,4-dihydroquinolin-2(1H)-one] had an IC50 of 2.28 µM.

`Cc1cc(-c2ccc3c(c2Cc2ccc(C#N)cc2)CCC(=O)N3)cn(C)c1=O` [Compound 87, 4-((6-(1,5-dimethyl-6-oxo-1,6-dihydropyridin-3-yl)-2-oxo-1,2,3,4-tetrahydroquinolin-5-yl)methyl)benzonitrile]: 0.1 µM corresponded to half-maximal inhibition (IC50).

Consider `Cc1cc(-c2cc3c(cc2/C=C/c2ccccc2)NC(=O)CC3)cn(C)c1=O` [Compound 93, (E)-6-(1,5-dimethyl-6-oxo-1,6-dihydropyridin-3-yl)-7-styryl-3,4-dihydroquinolin-2(1H)-one], for which inhibition was half-maximal at 0.76 µM (IC50).

Regarding `Cc1cc(-c2cc3c(c(COC4CCCOC4)c2)NC(=O)CC3)cn(C)c1=O` (centres unmarked) [Compound 48a, 6-(1,5-dimethyl-6-oxo-1,6-dihydropyridin-3-yl)-8-(((tetrahydro-2H-pyran-3-yl)oxy)methyl)-3,4-dihydroquinolin-2(1H)-one], the concentration for half-maximal inhibition (IC50) was 2.12 µM.

The compound `Cc1cc(-c2ccc3c(c2Cc2cccc(F)c2)CCC(=O)N3)cn(C)c1=O` [Compound 86, 6-(1,5-dimethyl-6-oxo-1,6-dihydropyridin-3-yl)-5-(3-fluorobenzyl)-3,4-dihydroquinolin-2(1H)-one] yielded a 50% inhibitory concentration (IC50) of 0.37 µM.

Take `Cc1cc(-c2cc3c(c(OCC4CCOCC4)c2)NC(=O)CC3)cn(C)c1=O` [Compound 72, 6-(1,5-dimethyl-6-oxo-1,6-dihydropyridin-3-yl)-8-((tetrahydro-2H-pyran-4-yl)methoxy)-3,4-dihydroquinolin-2(1H)-one]: the IC50 was greater than 6.14 µM.

With `Cc1cc(-c2ccc3c(c2Cc2cccnc2)CCC(=O)N3)cn(C)c1=O` [Compound 58, 6-(1,5-dimethyl-6-oxo-1,6-dihydropyridin-3-yl)-5-(pyridin-3-ylmethyl)-3,4-dihydroquinolin-2(1H)-one], the half-maximal inhibitory concentration (IC50) is 0.25 µM.

The compound `Cc1cc(-c2cc3c(c(O[C@H](C)c4ccccn4)c2)NC(=O)CC3)cn(C)c1=O` [Compound 74b, (R)-6-(1,5-dimethyl-6-oxo-1,6-dihydropyridin-3-yl)-8-(1-(pyridin-2-yl)ethoxy)-3,4-dihydroquinolin-2(1H)-one] showed an IC50 of 0.41 µM.

`Cc1cc(-c2cc3c(c(COc4ccccc4)c2)NC(=O)CC3)cn(C)c1=O` [Compound 44, 6-(1,5-dimethyl-6-oxo-1,6-dihydropyridin-3-yl)-8-(phenoxymethyl)-3,4-dihydroquinolin-2(1H)-one] showed a 50% inhibitory concentration (IC50) of 0.27 µM.

The assay is the same for the next values; noted with them: inhibition of C-Myc mRNA, 4 hours treatment.
`Cc1cc(-c2cc3c(c(OCC4CCCCO4)c2)NC(=O)CC3)cn(C)c1=O` (centres unmarked) [Compound 55b, 6-(1,5-dimethyl-6-oxo-1,6-dihydropyridin-3-yl)-8-((tetrahydro-2H-pyran-2-yl)methoxy)-3,4-dihydroquinolin-2(1H)-one]: the IC50 was 0.8 µM.

`Cc1cc(-c2cc3c(c(OC(C)c4cccnc4)c2)NC(=O)CC3)cn(C)c1=O` (single isomer, unassigned) [Compound 92a, 6-(1,5-dimethyl-6-oxo-1,6-dihydropyridin-3-yl)-8-(1-(pyridin-3-yl)ethoxy)-3,4-dihydroquinolin-2(1H)-one]: the IC50 turned out to be 0.09 µM.

As for `Cc1cc(-c2cc3c(c(OCC4CCCOC4)c2)NC(=O)CC3)cn(C)c1=O` (centres unmarked) [Compound 54b, 6-(1,5-dimethyl-6-oxo-1,6-dihydropyridin-3-yl)-8-((tetrahydro-2H-pyran-3-yl)methoxy)-3,4-dihydroquinolin-2(1H)-one], the IC50 was found to be 0.8 µM.
